Data as given in patent publication US10774109B2, “Crystal of reduced glutathione and method for producing same” (KYOWA HAKKO BIO CO., LTD., priority 2016, dated 2020).

Experiments:
[1] = Crystal thickness by scanning electron microscope; assay type: physicochemical; settings: α-type crystal
Excerpt: In this description, when a crystal is ascertained three-dimensionally using a microscope, the longest axis is referred to as “longitudinal axis”, and an axis perpendicular to the longitudinal axis is referred to as “lateral axis” (FIG. 2). Further, the length in the longitudinal axis direction of a crystal, the major axis of the cross section of the lateral axis, and the minor axis of the cross section of the lateral axis are referred to as “crystal length”, “crystal width”, and “crystal thickness”, respectively (see FIG. 2), and the averages thereof are referred to as “average length”, “average width”, and “average thickness”, respectively.
The crystal thickness can be measured, for example, using a scanning electron microscope [JSM-6510 (manufactured by JEOL Ltd.)] at a measurement magnification of 250 to 1000 times. For example, as for 50 crystals, crystals whose longitudinal axis is perpendicular to the scanning electron microscope field of view are selected, and the thickness of each crystal is measured (FIG. 2, right drawing), and the average thickness T is measured. A sample is fixed to an aluminum sample stand with a carbon double-sided tape.

[2] = Loose specific volume (Multi Tester MT-1001T); assay type: physicochemical; settings: for Difference in specific volume: loose minus dense specific volume; for Loose specific volume: α-type crystal
Description: Here, the “loose specific volume” refers to a value which is obtained by dividing a volume occupied by a powder by a mass when the powder is filled in a container and the mass of the powder is measured.
[Measurement Conditions for Loose Specific Volume]
Vibration width: 0.6 to 0.7 mm

[3] = Dense specific volume (Multi Tester MT-1001T); assay type: physicochemical; settings: α-type crystal; 200 taps
Description: Here, the “dense specific volume” refers to a value which is obtained by dividing a volume occupied by a powder by a mass when the powder is filled in a container and the mass of the powder is measured, and thereafter a given impact is applied to the container.
[Measurement Conditions for Dense Specific Volume]

[4] = Angle of repose (Multi Tester MT-1001T)
[5] = Angle of rupture (Multi Tester MT-1001T)
[6] = compared with Comparative Example
Excerpt: FIG. 1 illustrates the change in loose specific volume over time when crystals of reduced glutathione obtained in Example 3 and Comparative Example were pulverized. The vertical axis represents the loose specific volume (mL/g), and the horizontal axis represents the pulverization time (min).
The crystal of reduced glutathione of the present invention can be produced by further pulverizing the crystal of reduced glutathione of the present invention obtained by the above-mentioned method. The pulverization of the crystal can be performed, for example, using Osterizer Oster Vintage Blender 16-speed Dual Range (Osterizer OSTER) under the following conditions.
[Conditions for Pulverization of Crystal]
Sample feeding amount: 20 g/feed
The α-type crystals of reduced glutathione obtained in Example 3 and Comparative Example were pulverized, and the change in loose specific volume over time was measured.

| Structure (SMILES) | Average crystal thickness T [1] [μm] | Difference in specific volume [2] [mL/g] | Loose specific volume [2] [mL/g] | Dense specific volume [3] [mL/g] | Angle of repose ([4]; After pulverization) [°] | Angle of repose ([4]; Before pulverization) [°] | Angle of rupture ([5]; After pulverization) [°] | Angle of rupture ([5]; Before pulverization) [°] | loose specific volume during pulverization ([6]; all pulverization times) | pulverization behaviour (speed of pulverization, convergence of specific volume) ([6]; FIG. 1) | flowability ([4]; from Table 3, before and after pulverization) |
| --- | --- | --- | --- | --- | --- | --- | --- | --- | --- | --- | --- |
| N[C@@H](CCC(=O)N[C@@H](CS)C(=O)NCC(=O)O)C(=O)O [Comparative Example, reduced glutathione] | 5.5 | 1.48 | 3.42 | 1.95 | 51.8 | 51.4 | 41.5 | 46.8 |  |  |  |
| N[C@@H](CCC(=O)N[C@@H](CS)C(=O)NCC(=O)O)C(=O)O [Example 1, reduced glutathione] | 17.0 | 0.62 | 1.88 | 1.26 |  |  |  |  |  |  |  |
| N[C@@H](CCC(=O)N[C@@H](CS)C(=O)NCC(=O)O)C(=O)O [Example 3, reduced glutathione] | 16.7 | 0.71 | 2.00 | 1.29 | 37.4 | 42.4 | 31.1 | 39.4 | smaller | pulverized more promptly | the flowability is high |
| N[C@@H](CCC(=O)N[C@@H](CS)C(=O)NCC(=O)O)C(=O)O [Commercially available product B, reduced glutathione] |  | 2.61 | 5.50 | 2.88 |  |  |  |  |  |  |  |
| N[C@@H](CCC(=O)N[C@@H](CS)C(=O)NCC(=O)O)C(=O)O [Example 2, reduced glutathione] | 16.7 | 0.71 | 2.00 | 1.29 |  |  |  |  |  |  |  |
| N[C@@H](CCC(=O)N[C@@H](CS)C(=O)NCC(=O)O)C(=O)O [Commercially available product A, reduced glutathione] | 1.9 | 2.20 | 4.69 | 2.49 |  |  |  |  |  |  |  |
